Patent publication US20250352520A1, “USE OF DEXPRAMIPEXOLE FOR THE TREATMENT OF EOSINOPHILIC COPD” (Areteia Therapeutics, Inc., priority 2024, published 2025)

Description: Participants performed post-BD spirometry at specific visits as noted in the SOA.
After completing the pre-BD spirometry, participants inhaled four puffs of albuterol/salbutamol (site sourced) metered dose inhaler (approximately 100 μg albuterol/salbutamol base per actuation), with each actuation 1 minute apart. Post-BD spirometry was assessed within 15 to 30 minutes after inhalation of albuterol/salbutamol.

[1] = AECR≥0.5 patients, after 16 weeks
[2] = Week 16, <50% AEC reduction at Week 16
[3] = Week 16, <50% AEC reduction at Week 16 (N = 4), 150 mg BID

CCCN[C@@H]1CCc2nc(N)sc2C1 [Dexpramipexole, (6R)-2-amino-4,5,6,7-tetrahydro-6-(propylamino)benzothiazole]
Post-BD FEV1, absolute increase [1]: 220 mL
Post-BD FEV1, improvement compared to baseline [1]: 16.6%
Post-BD FEF25-75, absolute increase (AECR≥0.5 patients, week 16): 130 mL
Post-BD FEF25-75, average increase compared to baseline (AECR≥0.5 patients, week 16): 26.7%
Post-BD FVC, absolute increase (AECR≥0.5 patients, week 16): 226.7 mL
Post-BD FVC, average increase compared to baseline (AECR≥0.5 patients, week 16): 9.2%
Post-BD Peak Flow, average improvement compared to baseline (AECR≥0.5 patients, week 16): 40.2%
Post-BD FEV1 % change from baseline, Max [2]: 19%
Post-BD FEV1 % change from baseline, Mean ± SD [2]: −0.1± 21.10%
Post-BD FEV1 % change from baseline, Median [2]: 4.8%
Post-BD FEV1 % change from baseline, Min [2]: −29%
Post-BD FEV1 % change from baseline, Q1 [2]: −15%
Post-BD FEV1 % change from baseline, Q3 [2]: 15%
Post-BD FEV1 Observed, Max [2]: 1950 mL
Post-BD FEV1 Observed, Mean ± SD [2]: 1522.5 ± 546.34 mL
Post-BD FEV1 Observed, Median [2]: 1705.0 mL
Post-BD FEV1 Observed, Min [2]: 730 mL
Post-BD FEV1 Observed, Q1 [2]: 1170 mL
Post-BD FEV1 Observed, Q3 [2]: 1875 mL
Post-BD FEV1 change from baseline, Max [2]: 290 mL
Post-BD FEV1 change from baseline, Mean ± SD [2]: 40.0 ± 260.90 mL
Post-BD FEV1 change from baseline, Median [2]: 85.0 mL
Post-BD FEV1 change from baseline, Min [2]: -300 mL
Post-BD FEV1 change from baseline, Q1 [2]: -160 mL
Post-BD FEV1 change from baseline, Q3 [2]: 240 mL
Post bronchodilator Forced Expiratory Flow 25-75% (FEF25-75), % CFB (Percent change from baseline), Max [3]: 54%
Post bronchodilator Forced Expiratory Flow 25-75% (FEF25-75), % CFB (Percent change from baseline), Mean ± SD [3]: 9.7 ± 40.69%
Post bronchodilator Forced Expiratory Flow 25-75% (FEF25-75), % CFB (Percent change from baseline), Median [3]: 7.3%
Post bronchodilator Forced Expiratory Flow 25-75% (FEF25-75), % CFB (Percent change from baseline), Min [3]: −29%
Post bronchodilator Forced Expiratory Flow 25-75% (FEF25-75), % CFB (Percent change from baseline), Q1 [3]: −25%
Post bronchodilator Forced Expiratory Flow 25-75% (FEF25-75), % CFB (Percent change from baseline), Q3 [3]: 44%
Post bronchodilator Forced Expiratory Flow 25-75% (FEF25-75), CFB (Change from baseline), Max [3]: 290 mL/s
Post bronchodilator Forced Expiratory Flow 25-75% (FEF25-75), CFB (Change from baseline), Mean ± SD [3]: 90.0 ± 225.24 mL/s
Post bronchodilator Forced Expiratory Flow 25-75% (FEF25-75), CFB (Change from baseline), Median [3]: 90.0 mL/s
Post bronchodilator Forced Expiratory Flow 25-75% (FEF25-75), CFB (Change from baseline), Min [3]: -110 mL/s
Post bronchodilator Forced Expiratory Flow 25-75% (FEF25-75), CFB (Change from baseline), Q1 [3]: -105 mL/s
Post bronchodilator Forced Expiratory Flow 25-75% (FEF25-75), CFB (Change from baseline), Q3 [3]: 285 mL/s
Post bronchodilator Forced Expiratory Flow 25-75% (FEF25-75), Observed, Max [3]: 1090 mL/s
Post bronchodilator Forced Expiratory Flow 25-75% (FEF25-75), Observed, Mean ± SD [3]: 650.0 ± 382.19 mL/s
Post bronchodilator Forced Expiratory Flow 25-75% (FEF25-75), Observed, Median [3]: 635.0 mL/s
Post bronchodilator Forced Expiratory Flow 25-75% (FEF25-75), Observed, Min [3]: 240 mL/s
Post bronchodilator Forced Expiratory Flow 25-75% (FEF25-75), Observed, Q1 [3]: 340 mL/s
Post bronchodilator Forced Expiratory Flow 25-75% (FEF25-75), Observed, Q3 [3]: 960 mL/s
Post bronchodilator Forced Vital Capacity (FVC), % CFB (Percent change from baseline), Max [3]: 18%
Post bronchodilator Forced Vital Capacity (FVC), % CFB (Percent change from baseline), Mean ± SD [3]: 3.0 ± 14.06%
Post bronchodilator Forced Vital Capacity (FVC), % CFB (Percent change from baseline), Median [3]: 4.6%
Post bronchodilator Forced Vital Capacity (FVC), % CFB (Percent change from baseline), Min [3]: −16%
Post bronchodilator Forced Vital Capacity (FVC), % CFB (Percent change from baseline), Q1 [3]: −6%
Post bronchodilator Forced Vital Capacity (FVC), % CFB (Percent change from baseline), Q3 [3]: 12%
Post bronchodilator Forced Vital Capacity (FVC), CFB (Change from baseline), Max [3]: 450 mL
Post bronchodilator Forced Vital Capacity (FVC), CFB (Change from baseline), Mean ± SD [3]: 70.0 ± 388.16 mL
Post bronchodilator Forced Vital Capacity (FVC), CFB (Change from baseline), Median [3]: 150.0 mL
Post bronchodilator Forced Vital Capacity (FVC), CFB (Change from baseline), Min [3]: -470 mL
Post bronchodilator Forced Vital Capacity (FVC), CFB (Change from baseline), Q1 [3]: -180 mL
Post bronchodilator Forced Vital Capacity (FVC), CFB (Change from baseline), Q3 [3]: 320 mL
Post bronchodilator Forced Vital Capacity (FVC), Observed, Max [3]: 3460 mL
Post bronchodilator Forced Vital Capacity (FVC), Observed, Mean ± SD [3]: 3082.5 ± 447.84 mL
Post bronchodilator Forced Vital Capacity (FVC), Observed, Median [3]: 3165.0 mL
Post bronchodilator Forced Vital Capacity (FVC), Observed, Min [3]: 2540 mL
Post bronchodilator Forced Vital Capacity (FVC), Observed, Q1 [3]: 2715 mL
Post bronchodilator Forced Vital Capacity (FVC), Observed, Q3 [3]: 3450 mL
Post bronchodilator Peak Flow, % CFB (Percent change from baseline), Max [3]: 42%
Post bronchodilator Peak Flow, % CFB (Percent change from baseline), Mean ± SD [3]: 16.9 ± 28.64%
Post bronchodilator Peak Flow, % CFB (Percent change from baseline), Median [3]: 18.1%
Post bronchodilator Peak Flow, % CFB (Percent change from baseline), Min [3]: −10%
Post bronchodilator Peak Flow, % CFB (Percent change from baseline), Q1 [3]: −8%
Post bronchodilator Peak Flow, % CFB (Percent change from baseline), Q3 [3]: 42%
Post bronchodilator Peak Flow, CFB (Change from baseline), Max [3]: 150 L/min
Post bronchodilator Peak Flow, CFB (Change from baseline), Mean ± SD [3]: 51.5 ± 88.04 L/min
Post bronchodilator Peak Flow, CFB (Change from baseline), Median [3]: 46.0 L/min
Post bronchodilator Peak Flow, CFB (Change from baseline), Min [3]: -36 L/min
Post bronchodilator Peak Flow, CFB (Change from baseline), Q1 [3]: -22 L/min
Post bronchodilator Peak Flow, CFB (Change from baseline), Q3 [3]: 125 L/min
Post bronchodilator Peak Flow, Observed, Max [3]: 509 L/min
Post bronchodilator Peak Flow, Observed, Mean ± SD [3]: 326.0 ± 148.82 L/min
